Test results reported in PubChem BioAssay AID256 (DTP/NCI, 2004).
Values joined by “and” are separate entries in the source; they are usually repeats but may differ in a detail not shown here. Equal entries are not always repeated. Toxic doses and inconclusive results are not listed. The calls were made as follows: active = survival T/C of 150% or more; inactive = T/C below 125% in these data.

System: CD2F1 mice, L1210 leukemia ip, survival T/C
Experiment: NCI In Vivo Anticancer Drug Screen. Data for tumor model L1210 Leukemia (intraperitoneal) in CD2F1 (CDF1) mice
Details: endpoint: mean survival time, higher = longer survival
Summary of the method: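 Ratio T/C, where T is the treated-group value and C the vehicle-dosed control value, from mice implanted with a transplantable tumor.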

[1] = dose: 100.0 mg/kg/injection, schedule: Q04DX002 (ip), vehicle: saline with Tween-80
[2] = dose: 200.0 mg/kg/injection, schedule: Q04DX002 (ip), vehicle: saline with Tween-80
[3] = dose: 400.0 mg/kg/injection, schedule: Q04DX002 (ip), vehicle: saline with Tween-80
[4] = dose: 50.0 mg/kg/injection, schedule: Q01DX009 (ip), vehicle: saline with Tween-80
[5] = dose: 100.0 mg/kg/injection, schedule: Q01DX009 (ip), vehicle: saline with Tween-80
[6] = dose: 100.0 mg/kg/injection, schedule: Q04DX003 (ip), vehicle: saline with Tween-80
[7] = dose: 200.0 mg/kg/injection, schedule: Q01DX009 (ip), vehicle: saline with Tween-80
[8] = dose: 200.0 mg/kg/injection, schedule: Q04DX003 (ip), vehicle: saline with Tween-80
[9] = dose: 400.0 mg/kg/injection, schedule: Q01DX009 (ip), vehicle: saline with Tween-80
[10] = dose: 400.0 mg/kg/injection, schedule: Q04DX003 (ip), vehicle: saline with Tween-80
[11] = dose: 50.0 mg/kg/injection, schedule: Q01DX009 (ip), vehicle: Klucel (hydroxypropylcellulose) (HPC)
[12] = dose: 100.0 mg/kg/injection, schedule: Q01DX009 (ip), vehicle: Klucel (hydroxypropylcellulose) (HPC)
[13] = dose: 100.0 mg/kg/injection, schedule: Q04DX003 (ip), vehicle: Klucel (hydroxypropylcellulose) (HPC)
[14] = dose: 200.0 mg/kg/injection, schedule: Q04DX003 (ip), vehicle: Klucel (hydroxypropylcellulose) (HPC)
[15] = dose: 400.0 mg/kg/injection, schedule: Q04DX003 (ip), vehicle: Klucel (hydroxypropylcellulose) (HPC)

Measured: T/C

CC1=CCCC2(CCC3(C)CC32)C1(C)C (centres undefined)
inactive: dose: 100.0 mg/kg/injection, schedule: Q04DX003 (ip), vehicle: acetone 98 % of control | dose: 200.0 mg/kg/injection, schedule: Q04DX003 (ip), vehicle: acetone 102 % of control | dose: 400.0 mg/kg/injection, schedule: Q04DX003 (ip), vehicle: acetone 110 % of control

Cc1ccc(OC(=O)Nc2cc([N+](=O)[O-])ccc2[N+](=O)[O-])cc1
inactive: [1] 100 % of control | [2] 100 % of control | [3] 92 % of control

C=CC1CN2CCC1CC2C(O)c1ccnc2ccc(OC)cc12 (centres undefined) (tested in a mixture with another compound)
inactive: [4] 92 % of control and 95 % of control | dose: 100.0 mg/kg/injection, schedule: Q01DX001 (ip), vehicle: saline 95 % of control and 89 % of control | [5] 103 % of control and 98 % of control | [6] 99 % of control and 93 % of control | dose: 200.0 mg/kg/injection, schedule: Q01DX001 (ip), vehicle: saline 96 % of control | [7] 88 % of control and 95 % of control | [8] 92 % of control and 90 % of control | dose: 400.0 mg/kg/injection, schedule: Q01DX001 (ip), vehicle: saline 89 % of control

C(=C(\c1ccccc1)N1CCOCC1)/c1ccccc1
inactive: dose: 100.0 mg/kg/injection, schedule: Q01DX001 (ip), vehicle: saline sonified 111 % of control | [1] 93 % of control | dose: 200.0 mg/kg/injection, schedule: Q01DX001 (ip), vehicle: saline sonified 104 % of control | [2] 96 % of control | dose: 400.0 mg/kg/injection, schedule: Q01DX001 (ip), vehicle: saline sonified 102 % of control | [3] 96 % of control

COC(=O)C1C2CCc3cc(OC)ccc3C2CC(=O)C1(C)C(=O)OC (centres undefined)
inactive: dose: 100.0 mg/kg/injection, schedule: Q04DX003 (sc), vehicle: steriod suspending solution 103 % of control | dose: 200.0 mg/kg/injection, schedule: Q04DX003 (sc), vehicle: steriod suspending solution 95 % of control | dose: 400.0 mg/kg/injection, schedule: Q04DX003 (sc), vehicle: steriod suspending solution 104 % of control

O=C(NCCCN1CC1)C(=O)NCCCN1CC1
active: dose: 3.13 mg/kg/injection, schedule: Q01DX009 (ip), vehicle: saline 191 % of control
inactive: dose: 12.5 mg/kg/injection, schedule: Q01DX009 (ip), vehicle: saline 101 % of control

C=CCN1C(=O)c2ccccc2C1=O
inactive: [5] 98 % of control | [6] 97 % of control | [7] 94 % of control | [8] 101 % of control | [9] 100 % of control | [10] 101 % of control

C[CH2][Sn]1([CH2]C)[O]C2C(CO)OC(n3ccc(=O)[nH]c3=O)C2[O]1 (centres undefined)
inactive: dose: 1.56 mg/kg/injection, schedule: Q01DX005 (ip), vehicle: water 103 % of control | dose: 3.13 mg/kg/injection, schedule: Q01DX005 (ip), vehicle: water 102 % of control | dose: 6.25 mg/kg/injection, schedule: Q01DX005 (ip), vehicle: water 96 % of control | dose: 12.5 mg/kg/injection, schedule: Q01DX005 (ip), vehicle: other 104 % of control

COc1ccccc1OC(=O)Nc1ccccc1F
inactive: [6] 101 % of control | [8] 97 % of control | [10] 101 % of control

CCc1nc(-c2ccccc2)c(-c2ccccc2)[nH]1
inactive: [6] 90 % of control | [8] 92 % of control | [10] 90 % of control

CC(=O)Oc1ccc(C(=O)O)cc1
inactive: [11] 91 % of control | [12] 98 % of control

c1cc(-c2ncc[nH]2)ccn1
inactive: dose: 25.0 mg/kg/injection, schedule: Q01DX001 (ip), vehicle: saline with Tween-80 112 % of control | dose: 50.0 mg/kg/injection, schedule: Q01DX001 (ip), vehicle: saline with Tween-80 96 % of control | dose: 100.0 mg/kg/injection, schedule: Q01DX001 (ip), vehicle: saline with Tween-80 104 % of control

CC(=O)NN1C(=O)c2ccccc2C1=O
inactive: [13] 98 % of control | [14] 98 % of control | [15] 98 % of control

COc1cc(C2=NCCO2)cc(OC)c1OC
inactive: [6] 103 % of control | [8] 93 % of control | [10] 93 % of control

O=C(O)/C=C\C(=O)OCc1ccc(Cl)cc1Cl
inactive: [5] 106 % of control | [6] 91 % of control | [8] 101 % of control | [10] 95 % of control

Brc1nc(Br)c(Br)[nH]1
inactive: dose: 25.0 mg/kg/injection, schedule: Q01DX009 (ip), vehicle: saline with Tween-80 86 % of control | [4] 95 % of control | [5] 92 % of control | [6] 100 % of control

O=C1CSCC(=O)N1
inactive: dose: 100.0 mg/kg/injection, schedule: Q04DX003 (ip), vehicle: other 111 % of control | dose: 200.0 mg/kg/injection, schedule: Q04DX003 (ip), vehicle: other 111 % of control | dose: 400.0 mg/kg/injection, schedule: Q04DX003 (ip), vehicle: other 98 % of control

CN(C)C1c2ccccc2-c2ccccc21
inactive: dose: 50.0 mg/kg/injection, schedule: Q01DX001 (ip), vehicle: carboxymethylcellulose (CMC) 104 % of control | dose: 100.0 mg/kg/injection, schedule: Q01DX001 (ip), vehicle: carboxymethylcellulose (CMC) 104 % of control | dose: 200.0 mg/kg/injection, schedule: Q01DX001 (ip), vehicle: carboxymethylcellulose (CMC) 104 % of control | dose: 400.0 mg/kg/injection, schedule: Q01DX001 (ip), vehicle: carboxymethylcellulose (CMC) 110 % of control

O=C(CNC(=O)NCc1ccco1)N/N=C/c1cccc([N+](=O)[O-])c1
inactive: [4] 92 % of control | [5] 88 % of control | [7] 103 % of control

CC1(C)Oc2nc[nH]c(=O)c2C1c1ccccc1 (centres undefined)
inactive: [5] 115 % of control | [6] 101 % of control | [7] 107 % of control | [8] 101 % of control | [9] 98 % of control | [10] 98 % of control

CC(C)CC(=O)NC(C(=O)NC(C(=O)NC(CC(C)C)C(O)CC(=O)NC(C)C(=O)NC(CC(C)C)C(O)CC(=O)O)C(C)C)C(C)C (centres undefined)
inactive: dose: 3.12 mg/kg/injection, schedule: Q01DX009 (ip), vehicle: Klucel (hydroxypropylcellulose) (HPC) 96 % of control | dose: 6.25 mg/kg/injection, schedule: Q01DX009 (ip), vehicle: Klucel (hydroxypropylcellulose) (HPC) 100 % of control | dose: 12.5 mg/kg/injection, schedule: Q01DX009 (ip), vehicle: Klucel (hydroxypropylcellulose) (HPC) 96 % of control | dose: 25.0 mg/kg/injection, schedule: Q01DX009 (ip), vehicle: Klucel (hydroxypropylcellulose) (HPC) 100 % of control | [11] 94 % of control | [12] 97 % of control

O=C1CC[C@H](NC(=O)OCc2ccccc2)C(=O)O1
inactive: [5] 88 % of control | [7] 90 % of control | [9] 88 % of control

O=C1c2ccccc2C(=O)N1c1ccccc1-c1ccccc1
inactive: [6] 100 % of control | [8] 92 % of control | [10] 100 % of control

CC(C)C1=CCC2C(=C1)CCC1C(C)(C(N)=O)CCCC21C (centres undefined)
inactive: [6] 95 % of control | [8] 88 % of control | [10] 90 % of control

C/C(=C\c1ccccc1)C(=O)c1ccccc1
inactive: [13] 106 % of control | [14] 101 % of control | [15] 98 % of control
